Consider 31 molecules from ChEMBL document CHEMBL4130548, “Exploration of 1,2,3-triazole-pyrimidine hybrids as potent reversal agents against ABCB1-mediated multidrug resistance” (Eur J Med Chem, 2018).

What all share (format): cell-based
Data set [1] addresses T1, ATP-dependent translocase ABCB1 (Homo sapiens, UniProt P08183). The data set is described as follows: Inhibition of ABCB1 in human SW620/AD300 cells assessed as potentiation of paclitaxel-induced cytotoxicity by measuring fold reduction in paclitaxel IC50 at 2 uM preincubated for 4 hrs followed by paclitaxel addition measured after 72 hrs by MTT assay. On the technique in general: Formazan colour is commonly taken as a measure of viable cells.

Data set [2] deals with T1, ATP-dependent translocase ABCB1. The data set is described as follows: Inhibition of ABCB1 (unknown origin) expressed in HEK293T cells assessed as potentiation of colchicine-induced cytotoxicity by measuring fold reduction in colchicine IC50 at 2 uM preincubated for 4 hrs followed by […] measured after 72 hrs by MTT assay.
The target is the same in data set [3]. The data set can be described thus: Inhibition of ABCB1 in human SW620/AD300 cells assessed as potentiation of colchicine-induced cytotoxicity by measuring fold reduction in colchicine IC50 at 2 uM preincubated for 4 hrs followed by […] measured after 72 hrs by MTT assay relative to verapamil.
Data set [4] shares this target. The data set is described as follows: Inhibition of ABCB1 in human SW620/AD300 cells assessed as reduction in Rh123 efflux at 2 uM treated followed by Rh123 addition in Rh123 free medium for 30 to 120 mins by flow cytometry. (In flow cytometry, cells or beads pass a laser one at a time.)
Data set [5] shares this target. The data set is described as follows: Inhibition of ABCB1 in human SW620/AD300 cells assessed as potentiation of paclitaxel-induced cytotoxicity by measuring fold reduction in paclitaxel IC50 at 2 uM preincubated for 4 hrs followed by paclitaxel addition measured after 72 hrs by MTT assay relative to verapamil.
Data set [6] shares this target. The data set is described as follows: Inhibition of ABCB1 in human SW620/AD300 cells assessed as increase in Rh123 accumulation at 2 uM preincubated or 4 hrs followed by Rh123 addition measured after 30 mins by flow cytometry. As to conditions: 0.5 h; call rule not given here.
The target is the same in data set [7]. The data set is described as follows: Inhibition of ABCB1 in human SW620/AD300 cells assessed as reduction in paclitaxel efflux at 2 uM treated followed by 2 hrs of paclitaxel treatment in paclitaxel free medium for 30 mins by flow cytometry.
For data set [8] the target is unchanged. The data set is described as follows: Binding affinity at ABCB1 in human SW620/AD300 cells assessed as thermal stabilization at 2 uM preincubated for 4 hrs followed by incubation 40 to 61 degC for 3 mins by CETSA. As to conditions: 0.05 h.
The target is the same in data set [9]. The data set can be described thus: Inhibition of ABCB1 (unknown origin) expressed in HEK293T cells assessed as potentiation of paclitaxel-induced cytotoxicity by measuring fold reduction in paclitaxel IC50 at 2 uM preincubated for 4 hrs followed by paclitaxel addition measured after 72 hrs by MTT assay.
Data set [10] shares this target. The data set is described as follows: Inhibition of ABCB1 in human SW620/AD300 cells assessed as potentiation of colchicine-induced cytotoxicity by measuring fold reduction in colchicine IC50 at 2 uM preincubated for 4 hrs followed by […] measured after 72 hrs by MTT assay.

T1 sequence (P08183 whole entry): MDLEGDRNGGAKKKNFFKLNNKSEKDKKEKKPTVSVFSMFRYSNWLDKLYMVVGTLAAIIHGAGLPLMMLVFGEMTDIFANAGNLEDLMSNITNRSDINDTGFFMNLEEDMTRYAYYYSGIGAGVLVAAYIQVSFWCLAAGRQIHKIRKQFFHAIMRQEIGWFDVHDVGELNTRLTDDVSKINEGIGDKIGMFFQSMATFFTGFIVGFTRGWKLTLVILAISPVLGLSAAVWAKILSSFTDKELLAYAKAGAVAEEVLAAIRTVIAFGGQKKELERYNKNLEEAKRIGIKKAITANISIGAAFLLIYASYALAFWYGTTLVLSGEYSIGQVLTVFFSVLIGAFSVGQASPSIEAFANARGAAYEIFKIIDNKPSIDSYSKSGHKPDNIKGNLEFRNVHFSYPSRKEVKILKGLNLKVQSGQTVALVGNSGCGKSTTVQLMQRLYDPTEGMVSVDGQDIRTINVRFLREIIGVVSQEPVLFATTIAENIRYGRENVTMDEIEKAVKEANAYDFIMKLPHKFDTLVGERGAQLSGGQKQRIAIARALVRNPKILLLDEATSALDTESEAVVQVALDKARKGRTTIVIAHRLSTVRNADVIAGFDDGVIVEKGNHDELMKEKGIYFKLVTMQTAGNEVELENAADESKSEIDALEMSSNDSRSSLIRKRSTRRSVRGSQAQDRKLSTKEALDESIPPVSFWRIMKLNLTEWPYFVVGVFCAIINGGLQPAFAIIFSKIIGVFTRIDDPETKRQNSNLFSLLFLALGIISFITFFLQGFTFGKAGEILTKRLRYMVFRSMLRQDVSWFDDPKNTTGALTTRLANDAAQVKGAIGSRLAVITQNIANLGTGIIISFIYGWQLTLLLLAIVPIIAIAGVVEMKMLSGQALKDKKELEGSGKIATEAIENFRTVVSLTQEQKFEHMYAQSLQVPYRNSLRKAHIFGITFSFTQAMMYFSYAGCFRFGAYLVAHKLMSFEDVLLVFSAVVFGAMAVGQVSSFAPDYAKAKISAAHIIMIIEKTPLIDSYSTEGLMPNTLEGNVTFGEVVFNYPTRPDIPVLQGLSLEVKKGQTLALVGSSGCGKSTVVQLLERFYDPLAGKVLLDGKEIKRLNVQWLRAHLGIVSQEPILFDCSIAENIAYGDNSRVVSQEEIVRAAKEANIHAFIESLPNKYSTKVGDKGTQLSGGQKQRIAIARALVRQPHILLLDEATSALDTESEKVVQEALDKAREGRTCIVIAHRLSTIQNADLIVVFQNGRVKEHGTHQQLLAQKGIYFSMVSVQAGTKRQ

In the case of `C#CCSc1nc(Nc2ccccc2Cl)c(C#N)c(-c2ccccc2)n1`, the “fold change (FC)” value in data set [1] amounted to 1.32. On to `C#CCSc1nc(Nc2ccc(OC)cc2)c(C#N)c(-c2ccccc2)n1`, for which the “fold change (FC)” value in data set [1] amounted to 1.92. Consider `COc1ccc(Nc2nc(SCc3cn(Cc4ccccc4Cl)nn3)nc(-c3ccccc3)c2C#N)cc1`, for which the “fold change (FC)” value in data set [1] stood at 6.7. Turning to `C#CCSc1nc(Nc2cccc(C(F)(F)F)c2)c(C#N)c(-c2ccccc2)n1`, in data set [1], the “fold change (FC)” value is on record as 1.2. In the case of `N#Cc1c(Nc2cccc(C(F)(F)F)c2)nc(SCc2cn(Cc3ccccc3Cl)nn2)nc1-c1ccccc1`, the “fold change (FC)” value in [1] was found to be 5.84. As to `N#Cc1c(Nc2ccccc2Cl)nc(SCc2cn(Cc3ccccc3Cl)nn2)nc1-c1ccccc1`, the “fold change (FC)” value in [1] was 24.06.

Turning to `C#CCSc1nc(Nc2ccc(Cl)cc2)c(C#N)c(-c2ccccc2)n1`, the “fold change (FC)” value in [1] came to 1.64. On to `N#Cc1c(Nc2ccc(Cl)cc2)nc(SCc2cn(Cc3ccccc3Cl)nn2)nc1-c1ccccc1`, for which the “fold change (FC)” value in data set [1] is 2.02. On the same count and under the same terms, with `C#CCSc1nc(Nc2cccc(Cl)c2)c(C#N)c(-c2ccccc2)n1` the figure was 1.36; with `N#Cc1c(Nc2cccc(Cl)c2)nc(SCc2cn(Cc3ccccc3Cl)nn2)nc1-c1ccccc1`, 21.52. Turning to `COc1ccccc1Nc1nc(SCc2cn(Cc3ccccc3Cl)nn2)nc(-c2ccccc2)c1C#N`, the “fold change (FC)” value in [1] stood at 2.29. The same measure, in the same setting: with `Cc1cccc(Nc2nc(SCc3cn(Cc4ccccc4Cl)nn3)nc(-c3ccccc3)c2C#N)c1` the figure was 8.7; with `N#Cc1c(Nc2cccc([N+](=O)[O-])c2)nc(SCc2cn(Cc3ccccc3Cl)nn2)nc1-c1ccccc1`, 5.68; with `N#Cc1c(Nc2ccccc2F)nc(SCc2cn(Cc3ccccc3Cl)nn2)nc1-c1ccccc1`, 8.7. On to `N#Cc1c(Nc2ccc(F)cc2)nc(SCc2cn(Cc3ccccc3Cl)nn2)nc1-c1ccccc1`, for which the “fold change (FC)” value in data set [1] came out at 1.01. As for `Cc1ccccc1Nc1nc(SCc2cn(Cc3ccccc3Cl)nn2)nc(-c2ccccc2)c1C#N`, in [1], the “fold change (FC)” value is reported as 5.6. `N#Cc1c(Nc2ccccc2)nc(SCc2cn(Cc3ccccc3Cl)nn2)nc1-c1ccccc1`: in data set [1], the “fold change (FC)” value is recorded as 7.86.

Take `Cc1ccccc1Nc1nc(SCc2cn(Cc3ccc(Cl)cc3)nn2)nc(-c2ccccc2)c1C#N`: the “fold change (FC)” value worked out at 31.31 in data set [2]; 2 in [3]; 7 in data set [5]; 4.53 in data set [9]; 136.33 in [1]; 5.04 in [10]. Further, the “inhibition (INH)” value in [4], in [6] and in data set [7] was “Active” each time. Besides, the outcome in data set [8] was Active. Turning to `Cc1ccc(Cn2cc(CSc3nc(Nc4ccccc4C)c(C#N)c(-c4ccccc4)n3)nn2)cc1`, the “fold change (FC)” value in data set [1] is 4.44. Regarding `Cc1ccc(Nc2nc(SCc3cn(Cc4ccc(Cl)cc4)nn3)nc(-c3ccccc3)c2C#N)cc1`, the “fold change (FC)” value in data set [1] is reported as 8.7.

For `Cc1ccc(Nc2nc(SCc3cn(Cc4ccc(F)cc4)nn3)nc(-c3ccccc3)c2C#N)cc1`, the “fold change (FC)” value in data set [1] is 1.03.

`N#Cc1c(Nc2ccccc2F)nc(SCc2cn(Cc3ccc(Cl)cc3)nn2)nc1-c1ccccc1`: in [1], the “fold change (FC)” value amounted to 1.35. For `Cc1ccc(Cn2cc(CSc3nc(Nc4ccccc4F)c(C#N)c(-c4ccccc4)n3)nn2)cc1`, in [1], the “fold change (FC)” value amounted to 1.

As to `Cc1ccc(Cn2cc(CSc3nc(Nc4ccc(C)cc4)c(C#N)c(-c4ccccc4)n3)nn2)cc1`, the “fold change (FC)” value in [1] was determined as 4.35. Turning to `Cc1ccc(Cn2cc(CSc3nc(Nc4ccccc4Cl)c(C#N)c(-c4ccccc4)n3)nn2)cc1`, the “fold change (FC)” value in data set [1] was determined as 1.09. Still for that read-out and setting: under `Cc1ccc(Nc2nc(SCc3cn(Cc4ccccc4Cl)nn3)nc(-c3ccccc3)c2C#N)cc1` stands 3.58; under `Cc1ccc(Nc2nc(SCc3cn(Cc4ccccc4Cl)nn3)nc(-c3ccc(C(C)C)cc3)c2C#N)cc1`, 51.12. In the case of `Cc1ccc(Nc2nc(SCc3cn(Cc4ccccc4Cl)nn3)nc(-c3ccc(C)cc3)c2C#N)cc1`, the “fold change (FC)” value in data set [1] is recorded as 17.04. As for `COc1cc(-c2nc(SCc3cn(Cc4ccccc4Cl)nn3)nc(Nc3ccc(C)cc3)c2C#N)cc(OC)c1OC`, in data set [1], the “fold change (FC)” value came out at 34.08. The same measure, in the same setting: under `Cc1ccc(Nc2nc(SCc3cn(Cc4ccccc4Cl)nn3)nc(-c3ccc(Cl)cc3)c2C#N)cc1` stands 5.31; under `Cc1ccc(Nc2nc(SCc3cn(Cc4ccccc4Cl)nn3)nc(-c3ccc(Br)cc3)c2C#N)cc1`, 3.61.
